Source: ChEMBL document CHEMBL1153563, “Comparative in vitro activities of caspofungin and micafungin, determined using the method of the European Committee on Antimicrobial Susceptibility Testing, against yeast isolates obtained in France in 2005-2006” (2008)
In brackets after ≈: the same amount, converted by molar mass. *1 amine or outer side, *2 acyl side, *3 side chain or, on linkers, in order; H or OH if unused. Where a SMILES comes first, the peptide text is derived from it. Bridges are numbered along the chain shown (N, C = ends). [ ]: non-standard residue; d: D form. The star is where a group is joined. hTyr(3S-OH,4S-OH,3'-OSO3H) = N[C@H](C(=O)O)[C@H](O)[C@@H](O)c1ccc(O)c(OS(=O)(=O)O)c1; Orn(4R-OH,5R-OH) = O=C([C@H](C[C@@H](O)[C@@H](O)N[*:3])N[*:1])[*:2]; Pro(3S-OH,4S-Me) = C[C@H]1CN[C@H](C(=O)O)[C@H]1O; X1 = CCCCCOc1ccc(-c2cc(-c3ccc(C(=O)*)cc3)no2)cc1; Gln(3R-OH) = NC(=O)C[C@@H](O)[C@H](N)C(=O)O; Hyp = O=C(O)[C@@H]1C[C@@H](O)CN1

Tests used:
Assay type in all cases: functional
[1] = system: Meyerozyma guilliermondii; assay: Antifungal activity against Candida guilliermondii after 24 to 48 hrs by AFST-EUCAST based broth microdilution method
Pichia kudriavzevii = assay: Antifungal activity against Candida krusei ATCC 6258 after 24 to 48 hrs by AFST-EUCAST based broth microdilution method
Nakaseomyces glabratus = assay: Antifungal activity against Candida glabrata after 24 to 48 hrs by AFST-EUCAST based broth microdilution method
Kluyveromyces marxianus = assay: Antifungal activity against Candida kefyr after 24 to 48 hrs by AFST-EUCAST based broth microdilution method
Cyberlindnera jadinii = assay: Antifungal activity against Candida utilis after 24 to 48 hrs by AFST-EUCAST based broth microdilution method; details: Williopsis jadinii
Debaryomyces hansenii = assay: Antifungal activity against Candida famata after 24 to 48 hrs by AFST-EUCAST based broth microdilution method
Kodamaea ohmeri = assay: Antifungal activity against Kodamaea ohmeri after 24 to 48 hrs by AFST-EUCAST based broth microdilution method
Candida tropicalis = assay: Antifungal activity against Candida tropicalis after 24 to 48 hrs by AFST-EUCAST based broth microdilution method
Yarrowia lipolytica = assay: Antifungal activity against Candida lipolytica after 24 to 48 hrs by AFST-EUCAST based broth microdilution method
[Candida] haemuloni = Antifungal activity against Candida haemulonii after 24 to 48 hrs by AFST-EUCAST based broth microdilution method; details: Candidozyma haemuli
Meyerozyma caribbica = assay: Antifungal activity against Candida fermentati after 24 to 48 hrs by AFST-EUCAST based broth microdilution method
Cryptococcus neoformans = assay: Antifungal activity against […] after 24 to 48 hrs by AFST-EUCAST based broth microdilution method
Cyberlindnera saturnus = assay: Antifungal activity against Williopsis saturnus after 24 to 48 hrs by AFST-EUCAST based broth microdilution method
Candida dubliniensis = assay: Antifungal activity against Candida dubliniensis after 24 to 48 hrs by AFST-EUCAST based broth microdilution method
Zygosaccharomyces = assay: Antifungal activity against Zygosaccharomyces after 24 to 48 hrs by AFST-EUCAST based broth microdilution method
Rhodotorula mucilaginosa = assay: Antifungal activity against Rhodotorula mucilaginosa after 24 to 48 hrs by AFST-EUCAST based broth microdilution method
Clavispora lusitaniae = assay: Antifungal activity against Candida lusitaniae after 24 to 48 hrs by AFST-EUCAST based broth microdilution method
Pichia fermentans = assay: Antifungal activity against Candida lambica after 24 to 48 hrs by AFST-EUCAST based broth microdilution method
[Candida] intermedia = Antifungal activity against Candida intermedia after 24 to 48 hrs by AFST-EUCAST based broth microdilution method; details: Sungouiella intermedia
Wickerhamomyces anomalus = assay: Antifungal activity against Candida pelliculosa after 24 to 48 hrs by AFST-EUCAST based broth microdilution method; details: Hansenula anomala
Diutina rugosa = assay: Antifungal activity against Candida rugosa after 24 to 48 hrs by AFST-EUCAST based broth microdilution method
Candida albicans = assay: Antifungal activity against Candida albicans after 24 to 48 hrs by AFST-EUCAST based broth microdilution method
Kluyveromyces lactis = assay: Antifungal activity against Candida sphaerica after 24 to 48 hrs by AFST-EUCAST based broth microdilution method
[Candida] inconspicua = Antifungal activity against Candida inconspicua after 24 to 48 hrs by AFST-EUCAST based broth microdilution method; details: Pichia inconspicua
Nakaseomyces nivariensis = assay: Antifungal activity against Candida nivariensis after 24 to 48 hrs by AFST-EUCAST based broth microdilution method
Trichosporon = assay: Antifungal activity against Trichosporon after 24 to 48 hrs by AFST-EUCAST based broth microdilution method
Candida parapsilosis = assay: Antifungal activity against Candida parapsilosis ATCC 22019 after 24 to 48 hrs by AFST-EUCAST based broth microdilution method; details: Lodderomyces parapsilosis
Pichia norvegensis = assay: Antifungal activity against Candida norvegensis after 24 to 48 hrs by AFST-EUCAST based broth microdilution method
Candida africana = assay: Antifungal activity against Candida africana after 24 to 48 hrs by AFST-EUCAST based broth microdilution method
Geotrichum = assay: Antifungal activity against Geotrichum after 24 to 48 hrs by AFST-EUCAST based broth microdilution method
Saccharomyces cerevisiae = assay: Antifungal activity against Saccharomyces cerevisiae after 24 to 48 hrs by AFST-EUCAST based broth microdilution method

Q: What does the source list for `CCCCCOc1ccc(-c2cc(-c3ccc(C(=O)N[C@H]4C[C@@H](O)[C@@H](O)NC(=O)[C@@H]5[C@@H](O)[C@@H](C)CN5C(=O)[C@H]([C@H](O)CC(N)=O)NC(=O)[C@H]([C@H](O)[C@@H](O)c5ccc(O)c(OS(=O)(=O)O)c5)NC(=O)[C@@H]5C[C@@H](O)CN5C(=O)[C@H]([C@@H](C)O)NC4=O)cc3)no2)cc1` [MICAFUNGIN] (X1-[Orn(4R-OH,5R-OH)]T[Hyp][hTyr(3S-OH,4S-OH,3'-OSO3H)][Gln(3R-OH)][Pro(3S-OH,4S-Me)]; lactam 1-C)?
A: MIC50 [1]: 1 µg/mL (≈ 0.787 µM); MIC90 [1]: 2 µg/mL (≈ 1.57 µM); MIC50 (Pichia kudriavzevii): 0.25 µg/mL (≈ 0.197 µM); MIC90 (Pichia kudriavzevii): 0.25 µg/mL (≈ 0.197 µM); MIC50 (Nakaseomyces glabratus): 0.03 µg/mL (≈ 0.0236 µM); MIC90 (Nakaseomyces glabratus): 0.06 µg/mL (≈ 0.0472 µM); MIC50 (Kluyveromyces marxianus): 0.125 µg/mL (≈ 0.0984 µM); MIC90 (Kluyveromyces marxianus): 0.25 µg/mL (≈ 0.197 µM); MIC50 (Cyberlindnera jadinii): 0.06 µg/mL (≈ 0.0472 µM); MIC90 (Cyberlindnera jadinii): 1 µg/mL (≈ 0.787 µM); MIC50 (Debaryomyces hansenii): 0.06 µg/mL (≈ 0.0472 µM); MIC90 (Debaryomyces hansenii): 1 µg/mL (≈ 0.787 µM); MIC50 (Kodamaea ohmeri): 0.25 µg/mL (≈ 0.197 µM); MIC90 (Kodamaea ohmeri): 16 µg/mL (≈ 12.6 µM); MIC50 (Candida tropicalis): 0.06 µg/mL (≈ 0.0472 µM); MIC90 (Candida tropicalis): 0.125 µg/mL (≈ 0.0984 µM); MIC50 (Yarrowia lipolytica): 0.06 µg/mL (≈ 0.0472 µM); MIC90 (Yarrowia lipolytica): 1 µg/mL (≈ 0.787 µM); MIC50 ([Candida] haemuloni): 0.25 µg/mL (≈ 0.197 µM); MIC90 ([Candida] haemuloni): 0.25 µg/mL (≈ 0.197 µM); MIC50 (Meyerozyma caribbica): 1 µg/mL (≈ 0.787 µM); MIC90 (Meyerozyma caribbica): 1 µg/mL (≈ 0.787 µM); MIC50 (Cryptococcus neoformans): 16 µg/mL (≈ 12.6 µM); MIC90 (Cryptococcus neoformans): 16 µg/mL (≈ 12.6 µM); MIC50 (Cyberlindnera saturnus): 0.25 µg/mL (≈ 0.197 µM); MIC90 (Cyberlindnera saturnus): 16 µg/mL (≈ 12.6 µM); MIC50 (Candida dubliniensis): 0.06 µg/mL (≈ 0.0472 µM); MIC90 (Candida dubliniensis): 1 µg/mL (≈ 0.787 µM); MIC50 (Zygosaccharomyces): 0.25 µg/mL (≈ 0.197 µM); MIC90 (Zygosaccharomyces): 16 µg/mL (≈ 12.6 µM); MIC50 (Rhodotorula mucilaginosa): 16 µg/mL (≈ 12.6 µM); MIC50 (Clavispora lusitaniae): 0.25 µg/mL (≈ 0.197 µM); MIC90 (Clavispora lusitaniae): 0.5 µg/mL (≈ 0.394 µM); MIC50 (Pichia fermentans): 0.06 µg/mL (≈ 0.0472 µM); MIC90 (Pichia fermentans): 1 µg/mL (≈ 0.787 µM); MIC50 ([Candida] intermedia): 0.06 µg/mL (≈ 0.0472 µM); MIC90 ([Candida] intermedia): 1 µg/mL (≈ 0.787 µM); MIC50 (Wickerhamomyces anomalus): 0.06 µg/mL (≈ 0.0472 µM); MIC90 (Wickerhamomyces anomalus): 1 µg/mL (≈ 0.787 µM); MIC50 (Diutina rugosa): 0.06 µg/mL (≈ 0.0472 µM); MIC90 (Diutina rugosa): 1 µg/mL (≈ 0.787 µM); MIC50 (Candida albicans): 0.03 µg/mL (≈ 0.0236 µM); MIC90 (Candida albicans): 0.06 µg/mL (≈ 0.0472 µM); MIC50 (Kluyveromyces lactis): 0.06 µg/mL (≈ 0.0472 µM); MIC90 (Kluyveromyces lactis): 1 µg/mL (≈ 0.787 µM); MIC50 ([Candida] inconspicua): 0.06 µg/mL (≈ 0.0472 µM); MIC90 ([Candida] inconspicua): 1 µg/mL (≈ 0.787 µM); MIC50 (Nakaseomyces nivariensis): 0.06 µg/mL (≈ 0.0472 µM); MIC90 (Nakaseomyces nivariensis): 1 µg/mL (≈ 0.787 µM); MIC50 (Trichosporon): 16 µg/mL (≈ 12.6 µM); MIC50 (Candida parapsilosis): 2 µg/mL (≈ 1.57 µM); MIC90 (Candida parapsilosis): 2 µg/mL (≈ 1.57 µM); MIC50 (Pichia norvegensis): 0.06 µg/mL (≈ 0.0472 µM); MIC90 (Pichia norvegensis): 1 µg/mL (≈ 0.787 µM); MIC50 (Candida africana): 0.06 µg/mL (≈ 0.0472 µM); MIC90 (Candida africana): 1 µg/mL (≈ 0.787 µM); MIC50 (Geotrichum): 0.25 µg/mL (≈ 0.197 µM); MIC90 (Geotrichum): 16 µg/mL (≈ 12.6 µM); MIC50 (Saccharomyces cerevisiae): 0.25 µg/mL (≈ 0.197 µM); MIC90 (Saccharomyces cerevisiae): 16 µg/mL (≈ 12.6 µM)
